Test results: ChEMBL document CHEMBL5604062, “ASAP - ZIKV NS2B-NS3 protease fluorescence dose response” (2024)
“And” between values parts separate entries of the source, which are not always exact repeats. Equal values may be shown once.

molecular target: Nonstructural protein 3 (Zika virus, UniProt A0A024AXB9); experiment: Functional biochemical assay to identify treatments for viral infectious disease that targets Zika NS2B-NS3 protease. Utilizing a direct enzyme activity measurement method, reading the fluorescence intensity is used to characterize the relative potency of inhibitors as IC50.; set-up: species or system PRVABC59
Sequence (A0A024AXB9 whole entry): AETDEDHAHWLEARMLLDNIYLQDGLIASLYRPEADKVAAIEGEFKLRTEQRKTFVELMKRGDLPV

| Compound | IC50 |
| --- | --- |
| CCn1ccnc(N2CC[C@H](C(C)(C)C)C2)c1=O | > 99.5 µM |
| CCn1c(=O)c(N2C[C@H]3C[C@H]2C(F)(F)C3)nc2ccccc21 | > 99.5 µM |
| Cc1c(C(=O)Nc2cc(C#N)c3ccccc3n2)cc(C2CC2)n1C | > 99.5 µM |
| CN(C)[C@@H]1C[C@H](C(=O)Nc2cccc(CN)c2)CN(C(=O)OCc2ccccc2)C1 | > 99.5 µM |
| Cc1nc([C@H]2CCCNC2)[nH]c1C(=O)Nc1ccccn1 | > 99.5 µM |
| CCC1([C@H](NC(=O)OCc2ccccc2)C(=O)NCc2cccc(CN)c2)CCCCC1 | > 99.5 µM |
| CN(C)Cc1cccc(C(=O)Nc2cc(Cl)cc(C(=O)NC(C)(C)CO)c2)c1 | > 99.5 µM |
| NC(=O)[C@H]1CCCN(Cc2c[nH]c3ccccc23)C1 | > 99.5 µM |
| O=C(Nc1ccc(F)nc1)Oc1ccccc1 | > 100 µM |
| O=C(Nc1cc(Cl)cc(C(=O)NCCc2nnn[nH]2)c1)OCc1ccccc1 | > 99.5 µM |
| NCc1cccc(NC(=O)[C@@H]2CCC[C@H](OC(F)(F)F)C2)c1 | > 99.5 µM |
| O=C(N[C@@H](C(=O)Nc1ncc([C@H]2CCCN2)s1)c1ccc(OCc2ccccc2)cc1)OCc1ccccc1 | > 99.5 µM |
| Cc1ccc(S(=O)(=O)N2CCC(NS(=O)(=O)c3ccc(Cl)cc3C(=O)O)CC2)cc1 | > 99.5 µM |
| NCc1cccc(NC(=O)[C@@]23C[C@@H](NC(=O)OCc4ccccc4)C[C@@H]2C3)c1 | > 99.5 µM |
| NCc1cccc(NC(=O)[C@@H](NC(=O)c2cccnc2)c2ccc(OCc3ccccc3)cc2)c1 | > 99.5 µM |
| O=C(c1cc(Cl)cc2[nH]ncc12)N1C[C@H]2CNC[C@H]2C1 | > 99.5 µM |
| O=C(O)[C@@H]1CCCC[C@H]1NS(=O)(=O)c1ccc(Oc2ccccc2Cl)cc1 | > 99.5 µM |
| Cc1ocnc1COc1ccc(S(=O)(=O)Nc2ccc(Cl)cc2C(=O)O)cc1 | > 99.5 µM |
| Cn1c(=O)[nH]c2c(C(=O)Nc3ccc4c(c3)CNC4)cc(Br)cc21 | 0.034 µM and 0.022 µM |
| O=C(c1cc(Cl)ccc1NS(=O)(=O)c1ccc(Oc2ccccc2Cl)cc1)N1CCNCC1 | > 99.5 µM |
| COCn1ncc2c(C(=O)Nc3ccc4c(c3)CNC4)cc(Cl)cc21 | 0.08 µM and 0.054 µM |

| Compound | IC50 |
| --- | --- |
| Cn1nc([C@@H]2CCCN2)nc1NC(=O)c1cc(Cl)cc(NC(=O)OCc2ccccc2)c1 | > 99.5 µM |
| Cc1c(C(=O)Nc2ccc3c(c2)CNCCO3)cc(C2CC2)n1C | > 99.5 µM |
| CNC(=O)[C@H](Nc1cccc(N)n1)c1cc(Cl)cc(CNC(=O)OC(C)(C)C)c1 | > 99.5 µM |
| CCc1onc(-c2ccc(Br)cc2)c1C(=O)Nc1cccc(CN)c1 | > 99.5 µM |
| CCC1(NC(=O)Cn2ccnc(N3CC[C@@H](CO)C3)c2=O)CC1 | > 99.5 µM |
| Brc1nc(Br)n(Cc2cscn2)n1 | > 99.5 µM |
| CCn1c(=O)c(N2C[C@@H]3CN(C4CCC4)C[C@@H]3C2)nc2ccccc21 | > 99.5 µM |
| c1ccc2c([C@H]3CCN(CC[C@H]4CCCO4)C3)c[nH]c2c1 | > 99.5 µM |
| O=C(N[C@@H](C(=O)Nc1ccc2c(n1)CNC2)c1ccc(OCc2ccccc2)cc1)OCc1ccccc1 | > 99.5 µM |
| CN1CC=C(c2ccc(S(=O)(=O)Nc3ccc(Cl)cc3C(=O)O)cc2)CC1 | > 99.5 µM |
| CC(=O)N1CCN([C@H]2CC[C@H](NS(=O)(=O)c3ccc(Cl)cc3C(=O)O)CC2)CC1 | > 99.5 µM |
| O=C(O)[C@H]1C[C@H](n2ccc(Cc3c[nH]c4ccc(Cl)cc34)n2)C1 | > 99.5 µM |
| O=C(O)CCc1cccc(NC(=O)c2cc(Cl)cc(NC(=O)OCc3ccccc3)c2)c1 | > 99.5 µM |
| O=c1ccc(-n2cncn2)nn1CC=Cc1ccccc1 | > 99.5 µM |
| O=C(O)c1cc(Cl)cc(NS(=O)(=O)c2ccc(Oc3ccccc3Cl)cc2)c1 | > 99.5 µM |
| O=C(O)[C@H]1CCCC[C@@H]1NS(=O)(=O)c1ccc(Oc2ccccc2Cl)cc1 | > 99.5 µM |
| O=C1Cc2c(cccc2C(=O)N[C@H]2CC[C@@H](n3ccnn3)CC2)N1 | > 25 µM |
| NCc1cccc(NC(=O)[C@H]2CCCN(C(=O)CC3CC3)C2)c1 | > 99.5 µM |
| O=C(O)c1ncc(F)cc1NS(=O)(=O)c1ccc(Oc2ccccc2Cl)cc1 | > 99.5 µM |
| CCC1CN(C(=O)c2cc(Cl)ccc2NS(=O)(=O)c2ccc(Oc3ccccc3Cl)cc2)C1 | > 99.5 µM |
| CS(=O)(=O)N(c1cc(Cl)cc(C(=O)Nc2cccc(CN)c2)c1)S(C)(=O)=O | > 99.5 µM |

| Compound | IC50 |
| --- | --- |
| NCCCc1ccnc(NC(=O)c2cc(C3CC3)[nH]n2)c1 | > 25 µM |
| Cc1c(C(=O)Nc2ccc3c(c2)CCCC(=O)N3C)cc(C2CC2)n1C | > 25 µM |
| O=C1OCc2ccc(NC(=O)[C@H]3CNC4(CCCC4)C3)cc21 | > 25 µM |
| CN(C)CCNC(=O)[C@H](Nc1cccc(-c2nn[nH]n2)c1)c1cc(Cl)cc(NC(=O)OCc2ccccc2)c1 | > 99.5 µM |
| O=C(c1cc(Cl)cc2[nH]ncc12)N1CCC[C@H]1C1CCNCC1 | > 99.5 µM |
| NCc1cccc(NC(=O)[C@H]2[C@H]3CCC[C@H]3[C@@H]2NC(=O)OCc2ccccc2)c1 | > 99.5 µM |
| CCc1cccc2c(CN3CCC(c4cscn4)CC3)c[nH]c12 | > 99.5 µM |
| CCOc1cc(COc2cccnc2F)nc(N2CCNCC2)n1 | > 99.5 µM |
| O=C(Nc1cc([C@H]2CCOC2)ccn1)c1cc(F)c2[nH]ccc2c1 | > 25 µM |
| O=C(Nc1ccc2c(c1)CNC2)c1cc(Cl)cc2[nH]c(-c3cc(C4CC4)[nH]n3)nc12 | 0.08 µM and 0.029 µM and 0.061 µM |
| NCC12CC(NC(=O)c3cc(Cl)cc(NC(=O)OCc4ccccc4)c3)(CCO1)C2 | > 99.5 µM |
| O=C1Cc2c(cccc2C(=O)N[C@H]2CCc3ncsc3C2)N1 | > 25 µM |
| CC(C)(C)c1[nH]c2ccc(F)cc2c1Cc1ccc(-c2nnn[nH]2)cc1 | > 99.5 µM |
| CC(C)(C)O[C@H]1CCCN(C(=O)Nc2ccc3c(c2)CNC3)C1 | > 25 µM |
| CCn1ncc(-c2noc3nc(C)cc(C(=O)Nc4cccc(CN)c4)c23)c1C | > 99.5 µM |
| CCn1c(=O)c(N2CC[C@@]23CCN(C)C3)nc2ccccc21 | > 99.5 µM |
| N#Cc1cccc2[nH]cc(CN3CCC(c4cscn4)CC3)c12 | > 99.5 µM |
| O=C(Nc1cc(Cl)cc(S(=O)(=O)Nc2cccc(-n3nn[nH]c3=O)c2)c1)OCc1ccccc1 | > 99.5 µM |
| Brc1ccsc1CSc1cnn[nH]1 | > 99.5 µM |

More lines, now with the values ahead:

| IC50 | Compound |
| --- | --- |
| > 25 µM | Cn1cc(C(F)(F)F)nc1C(=O)Nc1cc(-c2cccnc2)ccn1 |
| 7.05 µM | CS(=O)(=O)NC(=O)c1cc(CN)cc(NC(=O)c2cc(Cl)cc(NC(=O)OCc3ccccc3)c2)c1 |
| > 25 µM | O=C1Cc2c(cccc2C(=O)NC2(c3ncccc3F)CC2)N1 |
| 62.1 µM | O=C(Nc1ccc2c(c1)CNC2)c1ccn[nH]1 |
| 44.9 µM | O=C(/C=C/c1ccccc1)C(=O)N1CCN(CCc2ccccc2)CC1 |
| 0.116 µM | O=C(Nc1ccc2c(c1)CN[C@H]2CCO)c1cc(F)cc2[nH]ncc12 |
| > 25 µM | O=C(Nc1cc(-c2cccnc2)ccn1)c1sc2c(c1Br)CNC2 |
| 10.3 µM | NCc1ccc(NC(=O)c2cc(Cl)cc(NC(=O)OCc3ccccc3)c2)cc1 |
| > 25 µM | C=CCNC(=O)C1(NC(=O)c2cccc3c2CC(=O)N3)CCCCC1 |
| 2.58 µM | COc1ncc(Cl)cc1C(=O)Nc1ccc2c(c1)CNC2 |
| 37.3 µM | N[C@H]1CCN(c2ccc(NS(=O)(=O)c3ccc(Oc4ccccc4Cl)cc3)cc2)C1 |
| > 25 µM | O=C(Nc1cc(-c2cccnc2)ccn1)c1cc(C2CC2)[nH]c(=O)c1 |
| 54.1 µM | O=C(O)c1c(NS(=O)(=O)c2ccc(Oc3ccccc3Cl)cc2)ccc(Cl)c1F |
| 5.07 µM | Nc1nc2c(Br)cc(C(=O)Nc3ccc4c(c3)CNC4)cc2s1 |
| 1.13 µM | Cn1cc2c(C(=O)Nc3ccc4c(c3)CNC4)cccc2n1 |
| 73.3 µM | c1cnc2[nH]cc(C3CCN(Cc4c[nH]c5ccncc45)CC3)c2c1 |
| 47.9 µM | NCc1cccc(NC(=O)[C@@H](NC(=O)OCc2ccccc2)c2ccc(OCc3ncccn3)cc2)c1 |
| 91.6 µM | COc1cc(C(=O)O)c(S(=O)(=O)Nc2ccc(Oc3ccccc3Cl)cc2)cc1F |
| 0.116 µM | N#C[C@H](Nc1ccc2c(c1)CNC2)c1cc(Cl)cc2[nH]ncc12 |
| > 25 µM | Cc1c(C(=O)Nc2cc(C(=O)N3CCOC[C@H](O)C3)ccn2)cc(C2CC2)n1C |
| > 25 µM | O=C(Nc1cc(-c2cccnc2)ccn1)c1cn2c(n1)CCC2 |
| > 25 µM | O=C(Nc1cc(-c2cccnc2)ccn1)c1cc2n(n1)CC1(CC1)C2 |

| IC50 | Compound |
| --- | --- |
| 0.316 µM | CC(C)c1nc2c(C(=O)Nc3ccc4c(c3)CNC4)cc(Br)cc2[nH]1 |
| 47.4 µM | O[C@@H]1CN(Cc2c[nH]c3ccccc23)CC[C@@H]1c1ccccc1 |
| > 25 µM | O=C(Nc1cc(-c2cccnc2)ccn1)c1coc(C2CC2)n1 |
| > 25 µM | Cc1c(C(=O)Nc2ccc3c(c2)CCCC(=O)N3)cc(C2CC2)n1C |
| > 25 µM | CC(=O)N1CCCc2cc(NC(=O)c3cc(C4CC4)n(C)c3C)ccc21 |
| 14.6 µM | C[C@@H](N)c1ccc(NC(=O)c2cc(Cl)cc(NC(=O)OCc3ccccc3)c2)cc1 |
| 1.39 µM | Cc1ccc(NC(=O)c2cc(Cl)cc3[nH]ncc23)cc1CN |
| 47.5 µM | COC(=O)c1cc(Cl)cc([C@@H]2CN(Cc3ccccc3)C[C@H]2c2cccc(CN)c2)c1 |
| 12.1 µM | CCc1ccc([C@@H](CC(=O)Nc2cccc(CN)c2)NC(=O)OCc2ccccc2)cc1Br |
| 49.4 µM | NC[C@]12CC[C@](NC(=O)c3cc(Cl)cc(NC(=O)OCc4ccccc4)c3)(CO1)C2 |
| 43.9 µM | NCc1cccc(NC(=O)c2cc(NC(=O)OCc3ccccc3)cc(Cl)c2Cl)c1 |
| 39.7 µM | N[C@@H](CCO)c1cccc(NC(=O)c2cc(Cl)cc(NC(=O)OCc3ccccc3)c2)c1 |
| 3.16 µM | COCCO[C@]1(C)C(=O)Nc2cc(F)cc(C(=O)Nc3ccc4c(c3)CNC4)c21 |
| 39.8 µM | CCc1cc(NC(=O)OCc2ccccc2)cc(C(=O)Nc2cccc(CN)c2)c1 |
| 1.14 µM | C[C@]1(OCCO)C(=O)Nc2cc(F)cc(C(=O)Nc3ccc4c(c3)CNC4)c21 |
| 22.7 µM | O=C(Nc1cc(Cl)cc([C@H](C#CCO)Nc2ccc(-c3nn[nH]n3)cc2)c1)OCc1ccccc1 |
| 3.2 µM | CCOC(=O)Nc1cc(Cl)cc(C(=O)Nc2cccc(CN)c2)c1 |
| 27.4 µM | N#C[C@]1(Nc2ccc3c(c2)CNC3)C(=O)Nc2ccccc21 |
| 8.99 µM | COC(=O)C(C)(C)NC(=O)[C@H](Nc1ccc2c(c1)CNC2)c1cc(Cl)cc(C2CC2)c1 |
| 6.93 µM | NCc1cccc(NC(=O)C[C@@H](NC(=O)OCc2ccccc2)c2ccc(OCc3ccccc3)cc2)c1 |
| 16.3 µM | COc1cc(NS(=O)(=O)c2ccc(Oc3ccccc3Cl)cc2)c(C(=O)O)cc1Cl |
